Results: US4532240A, “Diaminopyrimidines” (Warner-Lambert Company, priority 1983, dated 1985)
pIC50: −log10 of the molar value.

What was measured:
L1210 cells = assay: In vitro antitumor screening on L1210 murine leukemia cell line (growth, Coulter counter); format: cell-based; details: Mus musculus, L1210, 72 h; three days, 37° C., 5% CO2; read-out: L1210 Leukemia in vitro ID50
Procedure: L1210 cells, a murine leukemia cell line, were grown in RPMI 1640 supplemented with 5% fetal bovine serum and gentamicin (50 μg/ml).
Drug dilutions were prepared in the appropriate solvent and 20 μl of each dilution were added to 24-well Linbro tissue culture plates, followed by the addition of M 2.0 ml of cell suspension containing 3×10^4cells per ml. Solvent and medium controls were included in each test. After incubation at 37° C. for three days in 5% CO2, the contents of each well were removed and the cells counted in a ZBI Coulter counter. Percent growth was calculated relative to the controls and the levels of drug activity were expressed as ID50 in moles per liter using probit paper.

[1] = system: HCT-8 (human colon adenocarcinoma) cells; assay: In vitro activity against HCT-8 human colon adenocarcinoma cells; format: cell-based; details: HCT-8, 60-65 hours with compound, 37° C., read-out: ID50 against human colon adenocarcinoma
Procedure: HCT-8 (human colon adenocarcinoma) cells are trypsinized using Trypsin-EDTA. A single cell suspension is achieved by passing the cells through a 26 gauge needle with a 20 cc syringe. A cell suspension is prepared using RPMI 1640+10% FCS+50 μg/ml garamycin with a cell concentration of approximately 30,000 cells/ml. The cell suspension is dispensed in Linbro 24-well plates; 1 ml/well. The plates are incubated for approximately 48 hours at 37° C. in a 5% CO2 atmosphere. At this time test compounds are added in the appropriate concentration. Five μl of the 200 μg/ml stock solution is added to each well in a primary test. Ten μl of the appropriate dilution is added to each well for a titration test. The plates are reincubated an additional 60-65 hours at 37° C. in a 5% CO2 atmosphere. The test is read by lysing the cells using a mix of cationic surfactant, glacial acetic acid and sodium chloride. […] of the lysed cell suspension from each well is added to 8 ml of diluent. Each sample is read on the Coulter counter (ZBI model). The activity of each sample is measured as a percentage of the controls and the data is reported as ID50, that is the molar quantity of drug required to kill 50% of the tumor cells.

P388 Leukemia = assay: In vivo lymphocytic leukemia P388 test in mice; set-up: species or system CD2 F1 mice; details: intraperitoneal, two single doses four days apart
Procedure: The in vivo lymphocytic leukemia P388 test is carried out using the test system of the United States National Cancer Institute. The animals used are either male or female CD2 F1 mice. There are six to seven animals per test group. The tumor transplant is by intraperitoneal injection of dilute ascitic fluid containing cells of lymphocytic leukemia P388. The test compounds are administered intraperitoneally in two single doses with a four-day interval between doses at various dose levels following tumor inoculation. The animals are weighed and survivors are recorded on a regular basis for 30 days. A ratio of survival time for treated (T)/control (C) animals is calculated. The criterion for efficacy is T/C×100>125%. The positive control compound in this test is 5-fluorouracil. See Cancer Chemotherapy Reports, Part 3, 3, 1 (1972) for a comprehensive discussion of the protocol.

B. subtilis = assay: Antibacterial disk zone of inhibition, B. subtilis; format: cell-based, Bacillus subtilis 04555; details: Bacillus subtilis, read-out: Inhibition Zone diameter; for zone of inhibition at 100 µg/mL: 0.1 mg/ml; for zone of inhibition at 3000 µg/mL: 3.0 mg/ml
Procedure: (§1) Vegetative bacterial isolates are maintained on agar slants or in liquid media, hereby designated as inoculum media. The cultures are transferred at regular intervals in such media. (See Table IV for the corresponding inoculum media of each culture.) The organisms are generally transferred either onto agar slants or into liquid inoculum media and incubated at 37° C. (at 28° C. with Xanthomonas sp.) overnight (18-20 hours).
(§2) The microbial cells from the overnight agar slants are then scraped off and suspended in saline solution (0.85% NaCl). The microbial concentrations are adjusted to a light transmission of 8.6% using a PerkinElmer Model 35 spectrophotometer (550 nm). For the organisms that are maintained in liquid media, one of two procedures is followed: (1) the culture suspension is first centrifuged at 5000 rpm for five minutes. The pellet is resuspended in 0.85% saline to 8.6% light transmittancy; (2) an aliquot of the culture suspension is to be added directly to the assay medium.
Isolate spore suspensions (Bacillus sp.) are maintained at 4° C. These suspensions serve as the inoculum media for assays.
(§3) A given molten-agar assay medium, maintained in a flask at approximately 45° C., is inoculated with 0.16-10 ml of an appropriate cell or spore suspension per 100 ml of medium. Fifty ml of the inoculated medium is poured into a Bio-Assay dish (A/S Nunc; Gibco Laboratories Catalog Number 240835) and spread evenly across the bottom, then allowed to solidify at room temperature. Each agar dish is inverted and refrigerated until used.
(§4) The compounds or samples to be tested are dissolved in suitable solvents, e.g., alcohols, dimethylsulfoxide, or N,N-dimethylformamide. The samples are generally dissolved so that the final concentration of the solvent is <10%.* The compounds are tested at different concentrations: 3,000; 1,000; 500; 100; and 10 mcg/ml. Paper discs (12.7 mm diameter) saturated with a given concentration of test compound are placed onto the seeded agar dishes with a pair of forceps.
(§5) The disked agar dishes are incubated at 37° C. (28° C. for Xanthamonas sp.) for 18-20 hours. Active compounds show a zone of inhibition around the disc. The diameter of the zone is measured in mm. The zone diameter of active compounds ranges from a minimum of 13.5 mm to as high as 60 mm. The size of the zone diameter generally reflects the activity of the compound: the larger the zone the greater the activity.

B. catarrhalis = assay: Antibacterial disk zone of inhibition, B. catarrhalis; format: cell-based, Branhamella catarrhalis 03596; details: Moraxella catarrhalis, read-out: Inhibition Zone diameter; for zone of inhibition at 100 µg/mL: 0.1 mg/ml; for zone of inhibition at 3000 µg/mL: 3.0 mg/ml; for zone of inhibition at 500 µg/mL: 0.5 mg/ml
Procedure: as §1, §2, §3, §4, §5

M. faecalis = assay: Antibacterial disk zone of inhibition, M. faecalis (as headed); format: cell-based, Streptococcus faecalis 05045; details: Enterococcus faecalis, read-out: Inhibition Zone diameter; for zone of inhibition at 100 µg/mL: 0.1 mg/ml; for zone of inhibition at 10 µg/mL: 0.01 mg/ml
Procedure: as §1, §2, §3, §4, §5

S. lutea = assay: Antibacterial disk zone of inhibition, S. lutea (as headed); format: cell-based, Micrococcus luteus 05064; details: Micrococcus luteus, read-out: Inhibition Zone diameter; for zone of inhibition at 10 µg/mL: 0.01 mg/ml; for zone of inhibition at 100 µg/mL: 0.1 mg/ml; for zone of inhibition at 3000 µg/mL: 3.0 mg/ml
Procedure: as §1, §2, §3, §4, §5

X. phaseoli = assay: Antibacterial disk zone of inhibition, X. phaseoli; format: cell-based, Xanthomonas phascoli 06002; details: Xanthomonas; 3.0 mg/ml; read-out: Inhibition Zone diameter
Procedure: as §1, §2, §3, §4, §5

| SMILES | pIC50 (L1210 cells) | pIC50 [1] | T/C × 100 (P388 Leukemia; 6.25 mg/kg) | T/C × 100 (P388 Leukemia; 12.5 mg/kg) | T/C × 100 (P388 Leukemia; 25 mg/kg) | T/C × 100 (P388 Leukemia; 50 mg/kg) | zone of inhibition at 100 µg/mL (B. subtilis) | zone of inhibition at 100 µg/mL (B. catarrhalis) | zone of inhibition at 100 µg/mL (M. faecalis) | zone of inhibition at 10 µg/mL (S. lutea) | zone of inhibition at 3000 µg/mL (X. phaseoli) | zone of inhibition at 3000 µg/mL (B. subtilis) | zone of inhibition at 10 µg/mL (M. faecalis) | zone of inhibition at 100 µg/mL (S. lutea) | zone of inhibition at 3000 µg/mL (B. catarrhalis) | zone of inhibition at 3000 µg/mL (S. lutea) | zone of inhibition at 10 µg/mL (B. subtilis; 0.01 mg/ml) | zone of inhibition at 500 µg/mL (B. catarrhalis) | zone of inhibition at 1000 µg/mL (S. lutea; 1.0 mg/ml) |
| --- | --- | --- | --- | --- | --- | --- | --- | --- | --- | --- | --- | --- | --- | --- | --- | --- | --- | --- | --- |
| CC(=O)c1ccc(N2CCN(c3c(C)nc(N)nc3N)CC2)cc1 [Example 5, 5-[4-(4-acetylphenyl)-1-piperazinyl]-6-methyl-2,4-pyrimidinediamine, hydrate (100:18)] | 8.30 | 6.29 | 123% | 144% | 181% | 250% | 23 mm | 24 mm | 16 mm | 14 mm | 0 mm | – | – | – | – | – | – | – | – |
| CCCc1nc(N)nc(N)c1N1CCN(c2ccc(C(=O)OCC)cc2)CC1 [Example 18, 4-[4-(2,4-Diamino-6-propyl-5-pyrimidinyl)-1-piperazinyl]benzoic acid, ethyl ester] | 8.03 | 6.68 | – | – | 120% | 149% | – | 15 mm | – | – | 0 mm | 0 mm | 15 mm | 16 mm | – | – | – | – | – |
| Cc1nc(N)nc(N)c1N1CCN(c2ccc(C#N)cc2)CC1 [Example 19, 5-[4-(4-cyanophenyl)-1-piperazinyl]-6-methyl-2,4-pyrimidinediamine] | 5.82 | < 6.00 | – | – | – | – | – | – | 15 mm | – | 0 mm | 0 mm | – | – | 0 mm | 0 mm | – | – | – |
| Cc1nc(N)nc(N)c1N1CCN(c2ccc(S(C)(=O)=O)cc2)CC1 [Example 9, 6-Methyl-5-[4-[4-(methylsulfonyl)phenyl]-1-piperazinyl]-2,4-pyrimidinediamine, hydrate (10:2)] | 8.25 | 7.21 | 128% | 131% | 140% | 198% | – | – | – | – | 0 mm | – | 18 mm | – | – | 0 mm | 29 mm | 14 mm | – |
| CCCc1nc(N)nc(N)c1N1CCN(c2ccc(C(=O)O)cc2)CC1 [Example 15, 4-[4-(2,4-Diamino-6-propyl-5-pyrimidinyl)-1-piperazinyl]benzoic acid] | 7.37 | 6.55 | – | – | – | – | – | – | – | – | 0 mm | 0 mm | 15 mm | 16 mm | – | – | – | 19 mm | – |
| CCc1nc(N)nc(N)c1N1CCN(c2ccc(C(=O)O)cc2)CC1 [Example 11, 4-[4-(2,4-Diamino-6-ethyl-5-pyrimidinyl)-1-piperazinyl]benzoic acid] | 8.00 | 6.24 | – | – | – | – | 18 mm | – | – | 16 mm | 0 mm | – | 19 mm | – | – | – | – | 27 mm | – |
| CCCc1nc(N)nc(N)c1N1CCN(c2ccc(C(=O)NC(CCC(=O)O)C(=O)O)cc2)CC1 (stereo not drawn) [drawing 24] | – | – | – | – | – | – | – | – | 16 mm | – | 0 mm | 0 mm | – | – | 18 mm | – | – | – | 16 mm |
